ChEMBL document CHEMBL4507286 (2021)

Experiments:
[1] = target: TGF-beta receptor type-2 (Homo sapiens) (UniProt P37173)
[2] = target: Protein-tyrosine kinase 2-beta (Homo sapiens) (UniProt Q14289)
[3] = target: Cyclin-dependent kinase 11A (Homo sapiens) (UniProt Q9UQ88)
[4] = target: Serine/threonine-protein kinase 17A (Homo sapiens) (UniProt Q9UEE5)
[5] = target: STE20-like serine/threonine-protein kinase (Homo sapiens) (UniProt Q9H2G2)
[6] = target: Cyclin-dependent kinase 9 (Homo sapiens) (UniProt P50750)
Chain of Cyclin-dependent kinase 9 (Homo sapiens) (P50750 whole entry): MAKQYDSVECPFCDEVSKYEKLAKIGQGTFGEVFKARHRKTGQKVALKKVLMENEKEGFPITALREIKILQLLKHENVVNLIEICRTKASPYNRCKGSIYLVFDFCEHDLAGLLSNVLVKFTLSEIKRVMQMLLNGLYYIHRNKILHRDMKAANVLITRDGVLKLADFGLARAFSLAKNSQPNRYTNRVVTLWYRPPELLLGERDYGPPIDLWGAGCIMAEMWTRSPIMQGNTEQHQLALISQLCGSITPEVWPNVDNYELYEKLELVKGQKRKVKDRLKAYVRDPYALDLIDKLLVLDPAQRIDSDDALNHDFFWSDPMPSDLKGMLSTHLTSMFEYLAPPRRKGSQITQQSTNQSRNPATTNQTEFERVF

[7] = target: Bone morphogenetic protein receptor type-1A (Homo sapiens) (UniProt P36894)
[8] = target: Ankyrin repeat and protein kinase domain-containing protein 1 (Homo sapiens) (UniProt Q8NFD2)
[9] = target: Ephrin type-B receptor 4 (Homo sapiens) (UniProt P54760)
[10] = target: Mitogen-activated protein kinase kinase kinase 4 (Homo sapiens) (UniProt Q9Y6R4)
[11] = target: Alpha-2A adrenergic receptor (Homo sapiens) (UniProt P08913); conditions: Compound concentration 10.0 uM
[12] = target: G protein-coupled receptor kinase 3 (Homo sapiens) (UniProt P35626)
Rattus norvegicus = organism: Rattus norvegicus; conditions: Compound concentration 10.0 uM
[13] = test system: Tyrosine-protein kinase ABL1 (Homo sapiens), P00519 [F317L]
Chain of Tyrosine-protein kinase ABL1 (Homo sapiens), P00519 [F317L] (P00519 whole entry F317L): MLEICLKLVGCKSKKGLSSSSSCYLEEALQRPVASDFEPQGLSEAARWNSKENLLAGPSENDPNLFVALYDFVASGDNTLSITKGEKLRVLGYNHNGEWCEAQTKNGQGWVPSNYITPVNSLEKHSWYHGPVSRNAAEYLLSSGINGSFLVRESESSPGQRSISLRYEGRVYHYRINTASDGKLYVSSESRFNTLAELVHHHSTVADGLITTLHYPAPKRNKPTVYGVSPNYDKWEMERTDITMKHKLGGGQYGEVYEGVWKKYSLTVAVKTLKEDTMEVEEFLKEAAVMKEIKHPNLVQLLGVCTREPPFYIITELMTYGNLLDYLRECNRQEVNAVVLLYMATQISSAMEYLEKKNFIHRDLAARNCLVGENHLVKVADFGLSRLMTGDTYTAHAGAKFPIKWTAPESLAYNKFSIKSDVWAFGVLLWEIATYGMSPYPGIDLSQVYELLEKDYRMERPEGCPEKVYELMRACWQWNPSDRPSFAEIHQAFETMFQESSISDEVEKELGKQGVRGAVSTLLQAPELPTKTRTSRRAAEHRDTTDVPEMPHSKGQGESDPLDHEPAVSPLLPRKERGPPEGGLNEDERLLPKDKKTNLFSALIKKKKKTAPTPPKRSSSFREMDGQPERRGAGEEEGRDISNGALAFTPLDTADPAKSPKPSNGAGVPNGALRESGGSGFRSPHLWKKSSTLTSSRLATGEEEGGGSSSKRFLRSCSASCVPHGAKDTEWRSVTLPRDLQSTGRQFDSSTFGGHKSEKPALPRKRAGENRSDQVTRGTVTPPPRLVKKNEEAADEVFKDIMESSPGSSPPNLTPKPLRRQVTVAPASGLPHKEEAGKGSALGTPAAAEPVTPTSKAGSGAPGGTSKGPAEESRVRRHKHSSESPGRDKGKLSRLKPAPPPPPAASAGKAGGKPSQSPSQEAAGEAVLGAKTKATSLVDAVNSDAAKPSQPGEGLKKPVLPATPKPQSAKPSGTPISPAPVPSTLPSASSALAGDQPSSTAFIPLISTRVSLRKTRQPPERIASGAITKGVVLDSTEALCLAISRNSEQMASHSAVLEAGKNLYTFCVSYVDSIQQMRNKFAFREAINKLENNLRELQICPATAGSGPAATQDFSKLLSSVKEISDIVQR

[14] = target: Serine/threonine-protein kinase/endoribonuclease IRE1 (Homo sapiens) (UniProt O75460)
[15] = target: Serine/threonine-protein kinase N2 (Homo sapiens) (UniProt Q16513)
[16] = target: Serine/threonine-protein kinase pim-2 (Homo sapiens) (UniProt Q9P1W9)
[17] = target: Serine/threonine-protein kinase SIK1 (Homo sapiens) (UniProt P57059)
[18] = target: Serine/threonine-protein kinase pim-1 (Homo sapiens) (UniProt P11309)
[19] = target: Serine/threonine-protein kinase 26 (Homo sapiens, UniProt Q9P289)
[20] = target: Dual specificity mitogen-activated protein kinase kinase 7 (Homo sapiens) (UniProt O14733)
[21] = target: Serine/threonine-protein kinase RIO1 (Homo sapiens) (UniProt Q9BRS2)
[22] = target: Myosin light chain kinase 2, skeletal/cardiac muscle (Homo sapiens) (UniProt Q9H1R3)
[23] = target: Mitogen-activated protein kinase kinase kinase 3 (Homo sapiens) (UniProt Q99759)
[24] = test system: Epidermal growth factor receptor (Homo sapiens), P00533 [T790M]
[25] = target: Histamine H1 receptor (Homo sapiens) (UniProt P35367); conditions: Compound concentration 10.0 uM
[26] = target: Mitogen-activated protein kinase kinase kinase 20 (Homo sapiens) (UniProt Q9NYL2)
Chain of Mitogen-activated protein kinase kinase kinase 20 (Homo sapiens) (Q9NYL2 2-800 limits assumed): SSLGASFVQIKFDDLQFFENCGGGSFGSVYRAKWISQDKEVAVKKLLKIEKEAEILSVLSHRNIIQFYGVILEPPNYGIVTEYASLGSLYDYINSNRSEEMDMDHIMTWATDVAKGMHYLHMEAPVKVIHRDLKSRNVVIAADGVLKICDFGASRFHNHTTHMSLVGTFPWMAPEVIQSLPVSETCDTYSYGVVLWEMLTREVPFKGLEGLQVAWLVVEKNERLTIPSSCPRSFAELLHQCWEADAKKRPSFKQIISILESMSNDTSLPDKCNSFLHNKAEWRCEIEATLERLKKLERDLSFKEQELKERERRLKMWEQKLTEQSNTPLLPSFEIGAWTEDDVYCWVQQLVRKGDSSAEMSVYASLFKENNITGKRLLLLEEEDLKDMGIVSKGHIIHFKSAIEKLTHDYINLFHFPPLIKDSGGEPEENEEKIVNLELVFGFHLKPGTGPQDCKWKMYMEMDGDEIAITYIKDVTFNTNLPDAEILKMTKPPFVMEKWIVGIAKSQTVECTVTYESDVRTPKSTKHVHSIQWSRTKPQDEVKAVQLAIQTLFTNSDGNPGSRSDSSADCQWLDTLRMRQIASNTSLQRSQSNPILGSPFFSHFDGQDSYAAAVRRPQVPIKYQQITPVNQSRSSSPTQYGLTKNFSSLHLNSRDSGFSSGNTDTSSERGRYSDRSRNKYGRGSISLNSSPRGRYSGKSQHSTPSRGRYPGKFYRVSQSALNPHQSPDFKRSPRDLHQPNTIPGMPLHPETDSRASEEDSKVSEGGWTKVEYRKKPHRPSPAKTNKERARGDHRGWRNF

[27] = target: Protein-tyrosine kinase 6 (Homo sapiens) (UniProt Q13882)
[28] = target: Serine/threonine-protein kinase PLK3 (Homo sapiens) (UniProt Q9H4B4)
[29] = target: Interleukin-1 receptor-associated kinase 1 (Homo sapiens) (UniProt P51617)
[30] = target: Ribosomal protein S6 kinase alpha-4 (Homo sapiens) (UniProt O75676)
[31] = target: Leucine-rich repeat serine/threonine-protein kinase 2 (Homo sapiens) (UniProt Q5S007)
[32] = target: Wee1-like protein kinase (Homo sapiens) (UniProt P30291)
[33] = test system: Hepatocyte growth factor receptor (Homo sapiens), P08581 [Y1235D]
[34] = test system: Mast/stem cell growth factor receptor Kit (Homo sapiens), P10721 [D816H]
[35] = test system: Phosphatidylinositol 4,5-bisphosphate 3-kinase catalytic subunit alpha isoform (Homo sapiens), P42336 [C420R]
[36] = target: Death-associated protein kinase 3 (Homo sapiens) (UniProt O43293)
[37] = target: Serine/threonine-protein kinase Chk1 (Homo sapiens) (UniProt O14757)
[38] = target: Ephrin type-A receptor 3 (Homo sapiens) (UniProt P29320)
[39] = target: Tyrosine-protein kinase JAK2 (Homo sapiens) (UniProt O60674)
Chain of Tyrosine-protein kinase JAK2 (Homo sapiens) (O60674 whole entry): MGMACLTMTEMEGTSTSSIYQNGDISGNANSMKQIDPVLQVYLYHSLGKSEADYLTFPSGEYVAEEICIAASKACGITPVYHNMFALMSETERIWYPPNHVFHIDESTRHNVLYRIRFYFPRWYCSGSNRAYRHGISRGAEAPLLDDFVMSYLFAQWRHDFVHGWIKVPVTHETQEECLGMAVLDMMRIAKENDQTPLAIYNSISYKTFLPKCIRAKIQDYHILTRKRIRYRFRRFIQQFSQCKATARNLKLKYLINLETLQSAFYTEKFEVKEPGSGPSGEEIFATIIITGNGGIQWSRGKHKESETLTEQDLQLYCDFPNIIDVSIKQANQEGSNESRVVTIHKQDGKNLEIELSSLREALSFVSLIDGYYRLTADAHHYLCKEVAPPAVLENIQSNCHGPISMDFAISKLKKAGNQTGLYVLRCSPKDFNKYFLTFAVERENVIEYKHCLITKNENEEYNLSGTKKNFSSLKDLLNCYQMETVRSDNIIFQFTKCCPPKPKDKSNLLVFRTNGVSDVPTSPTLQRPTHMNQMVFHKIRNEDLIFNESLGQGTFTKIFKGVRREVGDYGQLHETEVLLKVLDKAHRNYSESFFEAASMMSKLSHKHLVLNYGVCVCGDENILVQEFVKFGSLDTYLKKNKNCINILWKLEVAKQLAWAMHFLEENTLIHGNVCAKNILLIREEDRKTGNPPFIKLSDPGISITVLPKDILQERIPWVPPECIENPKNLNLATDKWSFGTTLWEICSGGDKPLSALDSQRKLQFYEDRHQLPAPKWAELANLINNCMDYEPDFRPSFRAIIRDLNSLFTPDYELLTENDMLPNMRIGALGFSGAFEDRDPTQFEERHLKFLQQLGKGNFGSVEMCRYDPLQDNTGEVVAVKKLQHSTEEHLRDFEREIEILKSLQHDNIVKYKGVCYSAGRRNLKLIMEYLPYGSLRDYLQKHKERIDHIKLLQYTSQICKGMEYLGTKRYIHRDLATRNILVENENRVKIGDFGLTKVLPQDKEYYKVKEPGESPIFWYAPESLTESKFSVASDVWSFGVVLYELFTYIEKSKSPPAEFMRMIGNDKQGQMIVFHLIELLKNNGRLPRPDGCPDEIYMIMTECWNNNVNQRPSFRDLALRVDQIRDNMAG

[40] = target: Serine/threonine-protein kinase haspin (Homo sapiens) (UniProt Q8TF76)
[41] = target: Testis-specific serine/threonine-protein kinase 1 (Homo sapiens) (UniProt Q9BXA7)
[42] = target: Cyclin-dependent kinase 2 (Homo sapiens, UniProt P24941)
[43] = target: Cyclin-G-associated kinase (Homo sapiens) (UniProt O14976)
[44] = target: Serine/threonine-protein kinase PAK 3 (Homo sapiens) (UniProt O75914)
[45] = target: Calcium-dependent protein kinase 1 (Plasmodium falciparum) (UniProt P62344)
[46] = Compound concentration 1000.0 nM
[47] = Compound concentration 100.0 nM

Chain of STE20-like serine/threonine-protein kinase (Homo sapiens) (Q9H2G2 whole entry, looked up): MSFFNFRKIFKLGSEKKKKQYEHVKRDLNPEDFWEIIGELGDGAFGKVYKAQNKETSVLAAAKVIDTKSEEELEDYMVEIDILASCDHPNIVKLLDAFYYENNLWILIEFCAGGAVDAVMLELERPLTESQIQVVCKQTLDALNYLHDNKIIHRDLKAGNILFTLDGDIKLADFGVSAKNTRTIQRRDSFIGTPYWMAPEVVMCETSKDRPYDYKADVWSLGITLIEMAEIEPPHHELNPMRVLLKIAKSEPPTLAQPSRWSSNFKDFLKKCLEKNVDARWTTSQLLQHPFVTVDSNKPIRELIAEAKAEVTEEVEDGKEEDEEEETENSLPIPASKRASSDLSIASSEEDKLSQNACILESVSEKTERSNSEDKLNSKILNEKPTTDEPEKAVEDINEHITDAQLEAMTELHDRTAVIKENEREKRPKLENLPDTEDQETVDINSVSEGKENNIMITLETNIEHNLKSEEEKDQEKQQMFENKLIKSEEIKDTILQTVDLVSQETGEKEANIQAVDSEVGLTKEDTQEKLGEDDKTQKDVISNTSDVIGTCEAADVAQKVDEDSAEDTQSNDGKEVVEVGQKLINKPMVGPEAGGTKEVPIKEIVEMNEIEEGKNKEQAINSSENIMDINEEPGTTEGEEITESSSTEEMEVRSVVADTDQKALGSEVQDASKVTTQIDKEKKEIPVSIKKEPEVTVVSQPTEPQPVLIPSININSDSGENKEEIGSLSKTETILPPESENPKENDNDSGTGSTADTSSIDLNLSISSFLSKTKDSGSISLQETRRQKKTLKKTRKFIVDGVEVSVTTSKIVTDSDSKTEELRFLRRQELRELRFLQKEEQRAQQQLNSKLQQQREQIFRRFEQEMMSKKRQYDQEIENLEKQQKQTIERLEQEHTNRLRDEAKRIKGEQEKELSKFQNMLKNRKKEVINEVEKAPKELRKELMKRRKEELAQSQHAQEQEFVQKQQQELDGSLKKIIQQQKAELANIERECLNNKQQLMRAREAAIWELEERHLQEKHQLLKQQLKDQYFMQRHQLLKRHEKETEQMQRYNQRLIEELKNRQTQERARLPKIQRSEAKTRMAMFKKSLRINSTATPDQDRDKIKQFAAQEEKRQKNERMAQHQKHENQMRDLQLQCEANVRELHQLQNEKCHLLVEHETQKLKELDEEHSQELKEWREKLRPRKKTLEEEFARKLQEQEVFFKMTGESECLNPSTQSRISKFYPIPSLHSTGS
Chain of Serine/threonine-protein kinase 17A (Homo sapiens) (Q9UEE5 whole entry): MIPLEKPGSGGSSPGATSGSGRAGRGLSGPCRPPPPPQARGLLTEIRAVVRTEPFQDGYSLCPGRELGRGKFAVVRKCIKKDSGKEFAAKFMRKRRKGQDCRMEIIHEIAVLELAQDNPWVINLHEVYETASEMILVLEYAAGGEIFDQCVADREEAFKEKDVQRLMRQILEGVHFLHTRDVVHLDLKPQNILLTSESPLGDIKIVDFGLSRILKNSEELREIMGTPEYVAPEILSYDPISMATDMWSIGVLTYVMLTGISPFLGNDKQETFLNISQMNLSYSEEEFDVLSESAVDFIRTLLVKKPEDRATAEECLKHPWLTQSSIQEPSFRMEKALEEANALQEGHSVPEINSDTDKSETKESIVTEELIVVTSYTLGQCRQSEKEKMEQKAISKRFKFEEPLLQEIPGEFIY

## C[C@H](NC(=O)Nc1cc2[nH]ncc2c(CO)n1)c1ccccn1 [ERKi-NC]
[1]; [46]
  residual activity: 76.1%
[2]; [46]
  residual activity: 100%
[3]; [46]
  residual activity: 95.4%
[4]; [46]
  residual activity: 100%
[5]; [46]
  residual activity: 76%
[6]; [46]
  residual activity: 100%
[7]; [46]
  residual activity: 74.6%
[8]; [46]
  residual activity: 100%
[9]; [46]
  residual activity: 100%
[10]; [46]
  residual activity: 53.1%
[11]
  inhibition: 16.8%
[12]; [46]
  residual activity: 88.7%
Rattus norvegicus
  inhibition: -1.65%
[13]; [46]
  residual activity: 91.9%
[14]; [46]
  residual activity: 100%
[15]; [46]
  residual activity: 100%
[16]; [46]
  residual activity: 100%
[17]; [46]
  residual activity: 100%
[18]; [46]
  residual activity: 78.2%
[19]; [46]
  residual activity: 100%
[20]; [46]
  residual activity: 94.1%
[21]; [46]
  residual activity: 100%
[22]; [46]
  residual activity: 76.6%
[23]; [46]
  residual activity: 100%
[24]; [46]
  residual activity: 100%
[25]
  inhibition: 4.18%
[26]; [46]
  residual activity: 74.7%
[27]; [46]
  residual activity: 100%
[28]; [46]
  residual activity: 68.7%
[29]; [46]
  residual activity: 100%
[30]; [46]
  residual activity: 100%
[31]; [46]
  residual activity: 71.3%
[32]; [46]
  residual activity: 100%
[33]; [46]
  residual activity: 100%
[34]; [46]
  residual activity: 89.4%
[35]; [46]
  residual activity: 97.1%
[36]; [46]
  residual activity: 100%
[37]; [46]
  residual activity: 100%
[38]; [46]
  residual activity: 100%
[39]; [46]
  residual activity: 100%
[40]; [46]
  residual activity: 72.1%
[41]; [46]
  residual activity: 99%
[42]; [46]
  residual activity: 100%
[43]; [46]
  residual activity: 100%
[44]; [46]
  residual activity: 100%
[45]; [46]
  residual activity: 77.4%

## C[C@@H](NC(=O)Nc1cc2[nH]ncc2c(CO)n1)c1ccccc1 [ERKi]
[1]; [47]
  residual activity: 40.8%
[2]; [47]
  residual activity: 75%
[3]; [47]
  residual activity: 100%
[4]; [47]
  residual activity: 88%
[5]; [47]
  residual activity: 92.6%
[6]; [47]
  residual activity: 95.4%
[7]; [47]
  residual activity: 100%
[8]; [47]
  residual activity: 78.2%
[9]; [47]
  residual activity: 87.6%
[10]; [47]
  residual activity: 100%
[11]
  inhibition: 9.2%
[12]; [47]
  residual activity: 60.8%
Rattus norvegicus
  inhibition: 8.66%
[13]; [47]
  residual activity: 82.1%
[14]; [47]
  residual activity: 61.6%
[15]; [47]
  residual activity: 83.4%
[16]; [47]
  residual activity: 100%
[17]; [47]
  residual activity: 100%
[18]; [47]
  residual activity: 90.3%
[19]; [47]
  residual activity: 94.9%
[20]; [47]
  residual activity: 89.4%
[21]; [47]
  residual activity: 100%
[22]; [47]
  residual activity: 100%
[23]; [47]
  residual activity: 82.1%
[24]; [47]
  residual activity: 82.1%
[25]
  inhibition: -7.28%
[26]; [47]
  residual activity: 100%
[27]; [47]
  residual activity: 86.6%
[28]; [47]
  residual activity: 89%
[29]; [47]
  residual activity: 54.8%
[30]; [47]
  residual activity: 72.5%
[31]; [47]
  residual activity: 94.6%
[32]; [47]
  residual activity: 98.9%
[33]; [47]
  residual activity: 90.5%
[34]; [47]
  residual activity: 86.9%
[35]; [47]
  residual activity: 89.2%
[36]; [47]
  residual activity: 77.4%
[37]; [47]
  residual activity: 97.1%
[38]; [47]
  residual activity: 79.4%
[39]; [47]
  residual activity: 93.7%
[40]; [47]
  residual activity: 53.7%
[41]; [47]
  residual activity: 94.6%
[42]; [47]
  residual activity: 75.7%
[43]; [47]
  residual activity: 100%
[44]; [47]
  residual activity: 100%
[45]; [47]
  residual activity: 82.9%
